In patent US11802120B2, “Fused cyclic urea derivatives as CRHR2 antagonist” (RaQualia Pharma Inc., priority 2018, dated 2023):

Molecular target: T1, human CRHR2-alpha (Homo sapiens, UniProt Q13324)
T1 sequence (Q13324 1-411): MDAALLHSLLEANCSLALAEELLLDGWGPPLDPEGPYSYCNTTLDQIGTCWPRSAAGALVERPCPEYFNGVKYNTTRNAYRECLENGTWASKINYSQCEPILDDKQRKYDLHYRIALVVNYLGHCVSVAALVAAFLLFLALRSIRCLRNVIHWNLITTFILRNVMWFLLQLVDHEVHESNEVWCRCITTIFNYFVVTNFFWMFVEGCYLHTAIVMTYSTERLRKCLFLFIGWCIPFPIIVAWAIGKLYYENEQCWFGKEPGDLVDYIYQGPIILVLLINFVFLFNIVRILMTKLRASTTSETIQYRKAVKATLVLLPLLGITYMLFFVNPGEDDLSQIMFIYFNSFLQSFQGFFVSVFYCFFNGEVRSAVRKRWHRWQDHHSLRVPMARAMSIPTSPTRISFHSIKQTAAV
Test: cAMP functional assay for human CRHR2 (LANCE Ultra cAMP, TR-FRET)
Type: cell-based
Conditions: CHO-K1 cells expressing human CRHR2-alpha, agonist human urocortin2 at EC80, cAMP; read-out: IC50 against CRHR2
Outline: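 First, starved and frozen CHO-K1 cells expressing the receptor are thawed into IBMX-containing HBSS buffer (pH 7.4). Next, compounds are added for 30 min at 25° C. Then agonist at EC80 (urocortin2 or CRF, per receptor) is added for another 30 min, followed by cAMP detection reagents.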

SMILES	IC50 [nM]
Cc1c[nH]c2ncc(-n3c(=O)n(C[C@H]4CC[C@H](NC(=O)c5cc(Cl)cnc5C(F)F)CC4)c4ccccc43)cc12 [Example 456, 5-chloro-2-(difluoromethyl)-N-((1r,4r)-4-((3-(3-methyl-1H-pyrrolo[2,3-b]pyridin-5-yl)-2-oxo-2,3-dihydro-1H-benzo[d]imidazol-1-yl)methyl)cyclohexyl)nicotinamide]	< 300
O=C(N[C@H]1CC[C@H](Cn2c(=O)n(CCOc3ccccc3)c3ncccc32)CC1)c1cc(Cl)cnc1C(F)F [Example 458, 5-chloro-2-(difluoromethyl)-N-((1r,4r)-4-((2-oxo-3-(2-phenoxyethyl)-2,3-dihydro-1H-imidazo[4,5-b]pyridin-1-yl)methyl)cyclohexyl) nicotinamide]	< 300
O=C(N[C@H]1CC[C@H](Cn2c(=O)n(-c3ccc(Cl)cc3Cl)c3ncccc32)CC1)c1cc(Cl)cnc1C(F)F [Example 459, 5-chloro-N-((1r,4r)-4-((3-(2,4-dichlorophenyl)-2-oxo-2,3-dihydro-1H-imidazo[4,5-b]pyridin-1-yl)methyl)cyclo-hexyl)-2-(difluoromethyl) nicotinamide]	< 300
Cc1ncc(Cl)cc1C(=O)N[C@H]1CC[C@H](Cn2c(=O)n(-c3ccc(NC(C)C)nc3)c3ccccc32)CC1 [Example 460, 5-chloro-N-((1r,4r)-4-((3-(6-(isopropylamino)pyridin-3-yl)-2-oxo-2,3-dihydro-1H-benzo[d]imidazol-1-yl)methyl)cyclohexyl)-2-methylnicotinamide]	< 300
O=C(N[C@H]1CC[C@H](Cn2c(=O)n(-c3ccc(N4CC[C@@H](O)C4)nc3)c3ccccc32)CC1)c1cc(Cl)cnc1C(F)F [Example 461, 5-chloro-2-(difluoromethyl)-N-((1R,4r)-4-((3-(6-((R)-3-hydroxypyrrolidin-1-yl)pyridin-3-yl)-2-oxo-2,3-dihydro-1H-benzo[d]imidazol-1-yl)methyl)cyclohexyl) nicotinamide]	< 300
CNc1ncc(-n2c(=O)n(C[C@H]3CC[C@H](NC(=O)c4cc(Cl)cnc4C(F)F)CC3)c3ccccc32)cc1C [Example 462, 5-chloro-2-(difluoromethyl)-N-((1r,4r)-4-((3-(5-methyl-6-(methylamino)pyridin-3-yl)-2-oxo-2,3-dihydro-1H-benzo [d]imidazol-1-yl)methyl)cyclo-hexyl)nicotinamide]	< 300
O=C(N[C@H]1CC[C@H](Cn2c(=O)n(-c3ccc(NCC(F)(F)F)nc3)c3ccccc32)CC1)c1cc(Cl)cnc1C(F)F [Example 463, 5-chloro-2-(difluoromethyl)-N-((1r,4r)-4-((2-oxo-3-(6-((2,2,2-trifluoroethyl)amino)pyridin-3-yl)-2,3-dihydro-1H-benzo[d]imidazol-1-yl)methyl)cyclohexyl)nicotinamide]	< 300
O=C(N[C@H]1CC[C@H](Cn2c(=O)n(-c3ccc(NCC(F)F)nc3)c3ccccc32)CC1)c1cc(Cl)cnc1C(F)F [Example 464, 5-chloro-N-((1r,4r)-4-((3-(6-((2,2-difluoroethyl)amino)pyridin-3-yl)-2-oxo-2,3-dihydro-1H-benzo[d]imidazol-1-yl)methyl)cyclohexyl)-2-(difluoromethyl)nicotinamide]	< 300
CNc1cc(C)c(-n2c(=O)n(C[C@H]3CC[C@H](NC(=O)c4cc(Cl)cnc4C(F)F)CC3)c3ccccc32)cn1 [Example 465, 5-chloro-2-(difluoromethyl)-N-((1r,4r)-4-((3-(4-methyl-6-(methylamino)pyridin-3-yl)-2-oxo-2,3-dihydro-1H-benzo[d]imidazol-1-yl)methyl)cyclohexyl)nicotinamide]	< 300
C[C@@H](O)COc1ccc(-n2c(=O)n(C[C@H]3CC[C@H](NC(=O)c4cc(Cl)cnc4C(F)(F)F)CC3)c3ccccc32)cn1 [Example 466, 5-chloro-N-((1R,4r)-4-((3-(6-((R)-2-hydroxypropoxy)pyridin-3-yl)-2-oxo-2,3-dihydro-1H-benzo[d]imidazol-1-yl)methyl)cyclohexyl)-2-(trifluoromethyl)nicotinamide]	< 300
C[C@H](O)COc1ccc(-n2c(=O)n(C[C@H]3CC[C@H](NC(=O)c4cc(Cl)cnc4C(F)(F)F)CC3)c3ccccc32)cn1 [Example 467, 5-chloro-N-((1S,4r)-4-((3-(6-((S)-2-hydroxypropoxy)pyridin-3-yl)-2-oxo-2,3-dihydro-1H-benzo[d]imidazol-1-yl)methyl)cyclohexyl)-2-(trifluoromethyl)nicotinamide]	< 300
Cc1ncc(Cl)cc1C(=O)N[C@H]1CC[C@H](Cn2c(=O)n(-c3ccc(-n4ccnc4)cc3)c3ccccc32)CC1 [Example 468, N-((1r,4r)-4-((3-(4-(1H-imidazol-1-yl)phenyl)-2-oxo-2,3-dihydro-1H-benzo[d]imidazol-1-yl)methyl)cyclo-hexyl)-5-chloro-2-methyl-nicotinamide]	< 300
Cc1ncc(Cl)cc1C(=O)N[C@H]1CC[C@H](Cn2c(=O)n(-c3ccc(-c4ccn[nH]4)cc3)c3ccccc32)CC1 [Example 469, N-((1r,4r)-4-((3-(4-(1H-pyrazol-5-yl)phenyl)-2-oxo-2,3-dihydro-1H-benzo[d]imidazol-1-yl)methyl)cyclo-hexyl)-5-chloro-2-methylnicotinamide]	< 300
Cc1ncc(Cl)cc1C(=O)N[C@H]1CC[C@H](Cn2c(=O)n(-c3ccc(-n4ccnn4)cc3)c3ccccc32)CC1 [Example 470, N-((1r,4r)-4-((3-(4-(1H-1,2,3-triazol-1-yl)phenyl)-2-oxo-2,3-dihydro-1H-benzo[d]imidazol-1-yl)methyl)cyclohexyl)-5-chloro-2-methylnicotinamide]	< 300
Cc1ncc(Cl)cc1C(=O)N[C@H]1CC[C@H](Cn2c(=O)n(-c3ccc(-n4cccn4)cc3)c3ccccc32)CC1 [Example 471, N-((1r,4r)-4-((3-(4-(1H-pyrazol-1-yl)phenyl)-2-oxo-2,3-dihydro-1H-benzo[d]imidazol-1-yl)methyl)cyclohexyl)-5-chloro-2-methylnicotinamide]	< 300
Cc1c[nH]c2ncc(-n3c(=O)n(C[C@H]4CC[C@H](NC(=O)c5cc(Cl)cnc5C(F)F)CC4)c4cccnc43)cc12 [Example 474, 5-chloro-2-(difluoromethyl)-N-((1r,4r)-4-((3-(3-methyl-1H-pyrrolo[2,3-b]pyridin-5-yl)-2-oxo-2,3-dihydro-1H-imidazo[4,5-b]pyridin-1-yl)methyl)cyclohexyl)nicotinamide]	< 300
O=C(N[C@H]1CC[C@H](Cn2c(=O)n(-c3cncc(N4CCOCC4)c3)c3ccccc32)CC1)c1cc(Cl)cnc1C(F)F [Example 476, 5-chloro-2-(difluoromethyl)-N-((1r,4r)-4-((3-(5-morpholino-pyridin-3-yl)-2-oxo-2,3-dihydro-1H-benzo[d]imidazol-1-yl)methyl)cyclohexyl) nicotinamide]	< 300
COCCOc1ccc(-n2c(=O)n(C[C@H]3CC[C@H](NC(=O)c4cc(Cl)cnc4C(F)F)CC3)c3ccccc32)cn1 [Example 477, 5-chloro-2-(difluoromethyl)-N-((1r,4r)-4-((3-(6-(2-methoxy-ethoxy)pyridin-3-yl)-2-oxo-2,3-dihydro-1H-benzo[d]imidazol-1-yl)methyl)cyclohexyl) nicotinamide]	< 300
O=C(N[C@H]1CC[C@H](Cn2c(=O)n(-c3ccc(OC4COC4)nc3)c3ccccc32)CC1)c1cc(Cl)cnc1C(F)F [Example 478, 5-chloro-2-(difluoromethyl)-N-((1r,4r)-4-((3-(6-(oxetan-3-yloxy)pyridin-3-yl)-2-oxo-2,3-dihydro-1H-benzo[d]imidazol-1-yl)methyl)cyclohexyl)nicotinamide]	< 300
CCC(=O)Nc1ccc(-n2c(=O)n(C[C@H]3CC[C@H](NC(=O)c4cc(Cl)cnc4C)CC3)c3ccccc32)cn1 [Example 479, 5-chloro-2-methyl-N-((1r,4r)-4-((2-oxo-3-(6-propionamidopyridin-3-yl)-2,3-dihydro-1H-benzo[d]imidazol-1-yl)methyl)cyclohexyl)nicotinamide]	< 300
Cc1ncc(Cl)cc1C(=O)N[C@H]1CC[C@H](Cn2c(=O)n(-c3ccc(NCCC(F)F)nc3)c3ccccc32)CC1 [Example 480, 5-chloro-N-((1r,4r)-4-((3-(6-((3,3-difluoropropyl)amino)pyridin-3-yl)-2-oxo-2,3-dihydro-1H-benzo[d]imidazol-1-yl)methyl)cyclo-hexyl)-2-methylnicotinamide]	< 300
O=C(N[C@H]1CC[C@H](Cn2c(=O)n(-c3ccc(NC4COC4)nc3)c3ccccc32)CC1)c1cc(Cl)cnc1C(F)F [Example 481, 5-chloro-2-(difluoromethyl)-N-((1r,4r)-4-((3-(6-(oxetan-3-ylamino)pyridin-3-yl)-2-oxo-2,3-dihydro-1H-benzo [d]imidazol-1-yl)methyl)cyclohexyl)nicotinamide]	< 300
Cc1ncc(Cl)cc1C(=O)N[C@H]1CC[C@H](Cn2c(=O)n(-c3cncc(N4CCCC4)c3)c3ccccc32)CC1 [Example 482, 5-chloro-2-methyl-N-((1r,4r)-4-((2-oxo-3-(5-(pyrrolidin-1-yl)pyridin-3-yl)-2,3-dihydro-1H-benzo[d]imidazol-1-yl)methyl)cyclohexyl)nicotinamide]	< 300
